The values that follow are results of earlier work, collected in patent publication US20230285278A1, “METHODS FOR TREATING CHRONIC RHINOSINUSITIS” (OptiNose, Inc., priority 2022, published 2023).

Where two headings read alike, the source gives them in different places.

Take `CCC(=O)O[C@]1(C(=O)SCF)[C@H](C)C[C@H]2[C@@H]3C[C@H](F)C4=CC(=O)C=C[C@]4(C)[C@@]3(F)[C@@H](O)C[C@@]21C` [Fluticasone propionate, S-(fluoromethyl) 6α,9-difluoro-11β,17-dihydroxy-16α-methyl-3oxoandrosta-1,4-diene-17β-carbothioate, 17-propionate]: the Solubility result is given as “slightly soluble” (in 96% ethanol); “sparingly soluble” (in acetone); “sparingly soluble” (in dichloromethane); “freely soluble” (in dimethylformamide); “practically insoluble” (in water).
